{"source": "ChEMBL document CHEMBL1135696", "about": "“Isotopic effect study of propofol deuteration on the metabolism, activity, and toxicity of the anesthetic” (J Med Chem, 2002)", "key": {"[1]": {"assay": "Lethal Dose in mice (in vivo)", "conditions": "mouse"}, "[2]": {"assay": "in vivo", "conditions": "mouse, 24 mg/kg", "description": "Therapeutic index (24 mg/kg) in mice (in vivo)"}, "[3]": {"assay": "Kinetic parameter, Km on human hepatic microsomes.", "conditions": "liver microsomes"}}}
{"smiles": "CC(C)c1cccc(C(C)C)c1O", "note": "[PROPOFOL]", "values": [{"measurement": "LD50", "setting": "[1]", "value": 32, "unit": "mg/kg"}, {"measurement": "selectivity ratio", "setting": "[2]", "value": 2.1}, {"measurement": "Km", "setting": "[3]", "value": 12.3, "unit": "µM"}]}
{"smiles": "[2H]c1cc(C(C)C)c(O)c(C(C)C)c1", "note": "[MONODEUTERATED PROPOFOL]", "values": [{"measurement": "LD50", "setting": "[1]", "value": 39, "unit": "mg/kg"}, {"measurement": "selectivity ratio", "setting": "[2]", "value": 3}, {"measurement": "Km", "setting": "[3]", "value": 16.7, "unit": "µM"}]}
{"smiles": "[2H]c1c([2H])c(C(C)C)c(O)c(C(C)C)c1[2H]", "note": "[TRIDEUTERATED PROPOFOL]", "values": [{"measurement": "LD50", "setting": "[1]", "value": 35, "unit": "mg/kg"}, {"measurement": "selectivity ratio", "setting": "[2]", "value": 2.7}, {"measurement": "Km", "setting": "[3]", "value": 16.4, "unit": "µM"}]}
